Data taken from patent US7015313B2, “Lectin protein prepared from Korean marine crab Philyra pisum, process for preparing the same and the use thereof” (priority 2001, dated 2006).

Legend:
lectin PPA = experiment: Hemagglutination-inhibition assay of the lectin PPA with monosaccharide, disaccharide and glycoprotein; assay type: binding, Philyra pisum; details: for Erythrocyte agglutination inhibition concentration: 6.25% mouse erythrocyte, lectin PPA diluted 128-fold; for inhibition of agglutination (in words): summary of Table 2
Procedure: In order to confirm that the lectin PPA of the present invention recognizes N-glycolylneuraminic acid, hemagglutination-inhibition reaction was performed using monosaccharide, disaccharide and glycoprotein. 50 Microliters of a 128-fold diluted solution of lectin PPA in 0.15 molar NaCl and 50 microliters of each of 1 milligram per milliliter solutions of monosaccharides (e.g., β-D-glucose, D-galactose, L-fucose, D-mannose, N-acetylneuraminic acid, N-glycolylneuraminic acid, N-acetyl-D-glucosamine, N-acetyl-D-galactosamine and methyl-α-D-glucopoyranoside), disaccharide (e.g., α-lactose, β-lactose, D-lactose, βgentiobiose, maltose, D-raffinose or D-cellobiose) and glycoprotein (e.g., bovine submaxillary mucin, thyroglobulin, fetuin and asialofetuin) in 0. 15 molar NaCl were added to the each well of a 96-well microplate. After the reaction for one hour or more at room temperature, 50 microliters of the erythrocyte suspended in 0.15 molar NaCl was added to each well and reacted for one hour at room temperature.
The negative sign (−) means that there is no hemagglutination-inhibition for 100 millimolar monosaccharide/disaccharide and 100 micromolar glucoprotein. NeuGc and NeuAc represent N-glycolylneuraminic acid and N-acetylneuraminic acid, respectively.

[1] = system: peroxidase-labeled lectin PPA; experiment: ELISA with peroxidase-labeled lectin PPA on coated glycoproteins; assay type: binding, Philyra pisum; details: 1 milligram per milliliter glycoprotein solution diluted 10^3 to 10^8-fold, FIG. 3
Procedure: In order to more accurately verify the hemagglutination-inhibition reaction of the lectin PPA, ELISA was conducted. Specifically, the lectin PPA bound to a horse radish peroxidase (HRP) was used in examining the reactivity and sensitivity against glucoproteins by ELISA. First, 5.03 milligrams of HRP were dissolved in 0.2 milliliter of a 1.25% glutaraldehyde (EM grade)-100 millimolar sodium phosphate buffer (pH 6.8) and allowed to stand for 18 hours at room temperature. Then, 20 microliters of glycerol and 20 microliters of xylene cyanol were added thereto and this was used in performing gel filtration with a SEPHADEX (TM) G-75 column equilibrated with a 100 millimolar phosphate buffer and 0.15 molar NaCl (pH 7.2). After applying the glutaraldehyde-treated HRP onto the column and eluting with 0.15 molar NaCl, about 1 milliliter of the brownish fraction containing HRP solution was collected. This fraction was dialyzed with a 100 millimolar sodium carbonate-sodium bicarbonate buffer solution (pH 9.5) containing sucrose and followed by the same buffer without sucrose. To 300 microliters of HRP thus obtained were added 150 microliters of lectin PPA (concentration of about 0.4 milligram per milliliter concentration) containing with 0.15 molar NaCl. After confirming the pH value 9.0 or more, the resultant solution was incubated for 24 hours at 4° C. to prepare peroxidase-labeled lectin PPA. In the mean time, 1 milligram of each of fetuin, asialofetuin and bovine submaxillary mucin was dissolved in 1 milliliter of PBS and serial 10-fold dilutions were made. […] Then, the absorbance at 415 nanometers of each well was measured with a microplate reader. To eliminate the error of each well caused by the time difference while adding ABTS, a second measurement was performed after 10 minutes to determine the difference in the absorbances between the time of 10 minutes and 0 minute. […] The absorbance was decreased with the lowering of the concentration.

[2] = monosaccharide/disaccharide tested from 100 mM
[3] = glycoprotein tested from 100 micromolar
[4] = glycoprotein, minimum concentration

| Molecule | Erythrocyte agglutination inhibition concentration (lectin PPA; [2]) | further results |
| --- | --- | --- |
| OC[C@H]1O[C@@H](O[C@H]2[C@H](O)[C@@H](O)[C@H](O)O[C@@H]2CO)[C@H](O)[C@@H](O)[C@@H]1O [D-cellobiose] | — (The negative sign (−) means that there is no hemagglutination-inhibition for 100 millimolar monosaccharide/disaccharide) | – |
| O=C[C@H](O)[C@@H](O)[C@@H](O)[C@H](O)CO [D-galactose] | — (The negative sign (−) means that there is no hemagglutination-inhibition for 100 millimolar monosaccharide/disaccharide) | – |
| OC[C@H]1O[C@@H](O[C@H]2[C@H](O)[C@@H](O)C(O)O[C@@H]2CO)[C@H](O)[C@@H](O)[C@H]1O (stereo partly drawn) [D-lactose] | — (The negative sign (−) means that there is no hemagglutination-inhibition for 100 millimolar monosaccharide/disaccharide) | – |
| O=C[C@@H](O)[C@@H](O)[C@H](O)[C@H](O)CO [D-mannose] | — (The negative sign (−) means that there is no hemagglutination-inhibition for 100 millimolar monosaccharide/disaccharide) | – |
| OC[C@H]1O[C@H](OC[C@H]2O[C@H](O[C@]3(CO)O[C@H](CO)[C@@H](O)[C@@H]3O)[C@H](O)[C@@H](O)[C@@H]2O)[C@H](O)[C@@H](O)[C@H]1O [D-raffinose] | — (The negative sign (−) means that there is no hemagglutination-inhibition for 100 millimolar monosaccharide/disaccharide) | – |
| C[C@H](O)[C@@H](O)[C@@H](O)[C@H](O)C=O [L-fucose] | — (The negative sign (−) means that there is no hemagglutination-inhibition for 100 millimolar monosaccharide/disaccharide) | – |
| OC[C@H]1O[C@H](O[C@H]2[C@H](O)[C@@H](O)[C@H](O)O[C@@H]2CO)[C@H](O)[C@@H](O)[C@@H]1O [Maltose] | — (The negative sign (−) means that there is no hemagglutination-inhibition for 100 millimolar monosaccharide/disaccharide) | – |
| CO[C@H]1O[C@H](CO)[C@@H](O)[C@H](O)[C@H]1O [Methyl-α-D-glucopyranoside] | — (The negative sign (−) means that there is no hemagglutination-inhibition for 100 millimolar monosaccharide/disaccharide) | – |
| CC(=O)N[C@H]1C(O)O[C@H](CO)[C@H](O)[C@@H]1O (stereo partly drawn) [N-acetyl-D-galactosamine] | — (The negative sign (−) means that there is no hemagglutination-inhibition for 100 millimolar monosaccharide/disaccharide) | – |
| CC(=O)N[C@H]1C(O)O[C@H](CO)[C@@H](O)[C@@H]1O (stereo partly drawn) [N-acetyl-D-glucosamine] | — (The negative sign (−) means that there is no hemagglutination-inhibition for 100 millimolar monosaccharide/disaccharide) | – |
| CC(=O)N[C@H]1[C@H]([C@H](O)[C@H](O)CO)OC(O)(C(=O)O)C[C@@H]1O (some centres unmarked) [N-acetylneuraminic acid] | — (The negative sign (−) means that there is no hemagglutination-inhibition for 100 millimolar monosaccharide/disaccharide) | – |
| O=C(CO)N[C@H]1[C@H]([C@H](O)[C@H](O)CO)OC(O)(C(=O)O)C[C@@H]1O (some centres unmarked) [N-glycolylneuraminic acid] | – | Erythrocyte agglutination inhibition concentration (lectin PPA; monosaccharide/disaccharide, minimum concentration): 190 µM; inhibition of agglutination (in words) (lectin PPA): inhibited the agglutination |
| OC[C@H]1O[C@@H](O)[C@H](O)[C@@H](O)[C@@H]1O [beta.-D-glucose] | — (The negative sign (−) means that there is no hemagglutination-inhibition for 100 millimolar monosaccharide/disaccharide) | – |
| OC[C@H]1O[C@@H](O[C@H]2[C@H](O)[C@@H](O)[C@@H](O)O[C@@H]2CO)[C@H](O)[C@@H](O)[C@H]1O [α-lactose] | — (The negative sign (−) means that there is no hemagglutination-inhibition for 100 millimolar monosaccharide/disaccharide) | – |
| OC[C@H]1O[C@@H](OC[C@H]2O[C@@H](O)[C@H](O)[C@@H](O)[C@@H]2O)[C@H](O)[C@@H](O)[C@@H]1O [β-gentiobiose] | — (The negative sign (−) means that there is no hemagglutination-inhibition for 100 millimolar monosaccharide/disaccharide) | – |
| OC[C@H]1O[C@@H](O[C@H]2[C@H](O)[C@@H](O)[C@H](O)O[C@@H]2CO)[C@H](O)[C@@H](O)[C@H]1O [β-lactose] | — (The negative sign (−) means that there is no hemagglutination-inhibition for 100 millimolar monosaccharide/disaccharide) | – |
| Asialofetuin: glycoprotein without sialic acid, does not contain N-glycolylneuraminic acid | – | ELISA response (absorbance at 415 nanometers) [1]: no response occurred; Erythrocyte agglutination inhibition concentration (lectin PPA; [3]): — (The negative sign (−) means that there is no hemagglutination-inhibition for 100 millimolar monosaccharide/disaccharide and 100 micromolar glucoprotein) |
| Bovine submaxillary mucin | – | ELISA response (absorbance at 415 nanometers) [1]: a response in which absorbance value is increased was observed; Erythrocyte agglutination inhibition concentration (lectin PPA; [4]): 1.3 µM; inhibition of agglutination (in words) (lectin PPA): inhibited the agglutination |
| Fetuin: glycoprotein with NeuAc, does not contain N-glycolylneuraminic acid | – | ELISA response (absorbance at 415 nanometers) [1]: no response occurred; Erythrocyte agglutination inhibition concentration (lectin PPA; [3]): — (The negative sign (−) means that there is no hemagglutination-inhibition for 100 millimolar monosaccharide/disaccharide and 100 micromolar glucoprotein) |
| Thyroglobulin: glycoprotein containing N-glycolylneuraminic acid | – | Erythrocyte agglutination inhibition concentration (lectin PPA; [4]): 0.4 µM; inhibition of agglutination (in words) (lectin PPA): inhibited the agglutination |
